ChEMBL document CHEMBL6121016, “Design, Synthesis, and Biological Evaluation of 1,3,4-Thiadiazole Derivatives as Novel Potent Peptide Deformylase Inhibitors for Combating Drug-Resistant Gram-Positive and -Negative Bacteria” (J Med Chem, 2025)
≈ marks a conversion by molar mass, not a printed value.

Tested on: Staphylococcus aureus
Test: Antibacterial activity against methicillin-resistant Staphylococcus aureus ATCC 43300 after 16 to 18 hrs by broth microdilution method
Type: functional
Settings: time 16-18 hrs

Point of comparison: `CCCC[C@H](CN(O)C=O)C(=O)N1CCC[C@H]1c1nnc(-c2nccs2)s1`, MIC 0.25 µg/mL (≈ 0.61 µM). Against it:
- O=C(O)c1cn(C2CC2)c2cc(N3CCNCC3)c(F)cc2c1=O [CIPROFLOXACIN] — 260-fold higher, 64 µg/mL (≈ 193 µM)
- CCCC[C@H](CN(O)C=O)C(=O)N1CCC[C@H]1c1nnc(-c2ccc(C)s2)s1 — the same, 0.25 µg/mL (≈ 0.592 µM)
- CCCC[C@H](CN(O)C=O)C(=O)N1CCC[C@H]1c1nnc(-c2ccc(Cl)s2)s1 — the same, 0.25 µg/mL (≈ 0.564 µM)

Tested on: Acinetobacter baumannii
Test: Antibacterial activity against drug-resistant Acinetobacter baumannii Bio 53272 after 16 to 18 hrs by broth microdilution method
Type: functional
Settings: time 16-18 hrs

Point of comparison: `CCCC[C@H](CN(O)C=O)C(=O)N1CCC[C@H]1c1nnc(-c2ccc(C)s2)s1`, MIC 16 µg/mL (≈ 37.9 µM). Against it:
- O=C(O)c1cn(C2CC2)c2cc(N3CCNCC3)c(F)cc2c1=O [CIPROFLOXACIN] — 2-fold higher, 32 µg/mL (≈ 96.6 µM)
- CCCC[C@H](CN(O)C=O)C(=O)N1CCC[C@H]1c1nnc(-c2ccc(Cl)s2)s1 — the same, 16 µg/mL (≈ 36.1 µM)
- CCCC[C@H](CN(O)C=O)C(=O)N1CCC[C@H]1c1nnc(-c2nccs2)s1 — 2-fold lower, 8 µg/mL (≈ 19.5 µM)

Tested on: Staphylococcus aureus
Test: Antibacterial activity against methicillin-susceptible Staphylococcus aureus ATCC 25923 after 16 to 18 hrs by broth microdilution method
Type: functional
Settings: time 16-18 hrs

Point of comparison: `CCCC[C@H](CN(O)C=O)C(=O)N1CCC[C@H]1c1nnc(-c2nccs2)s1`, MIC 1 µg/mL (≈ 2.44 µM). Against it:
- O=C(O)c1cn(C2CC2)c2cc(N3CCNCC3)c(F)cc2c1=O [CIPROFLOXACIN] — 4-fold higher, 4 µg/mL (≈ 12.1 µM)
- CCCC[C@H](CN(O)C=O)C(=O)N1CCC[C@H]1c1nnc(-c2ccc(C)s2)s1 — 4-fold higher, 4 µg/mL (≈ 9.47 µM)
- CCCC[C@H](CN(O)C=O)C(=O)N1CCC[C@H]1c1nnc(-c2ccc(Cl)s2)s1 — the same, 1 µg/mL (≈ 2.26 µM)

Tested on: Staphylococcus aureus
Test: Antibacterial activity against methicillin-resistant Staphylococcus aureus ATCC 33591 after 16 to 18 hrs by broth microdilution method
Type: functional
Settings: time 16-18 hrs

Point of comparison: `CCCC[C@H](CN(O)C=O)C(=O)N1CCC[C@H]1c1nnc(-c2nccs2)s1`, MIC 0.25 µg/mL (≈ 0.61 µM). Against it:
- O=C(O)c1cn(C2CC2)c2cc(N3CCNCC3)c(F)cc2c1=O [CIPROFLOXACIN] — the same, 0.25 µg/mL (≈ 0.754 µM)
- CCCC[C@H](CN(O)C=O)C(=O)N1CCC[C@H]1c1nnc(-c2ccc(C)s2)s1 — the same, 0.25 µg/mL (≈ 0.592 µM)
- CCCC[C@H](CN(O)C=O)C(=O)N1CCC[C@H]1c1nnc(-c2ccc(Cl)s2)s1 — the same, 0.25 µg/mL (≈ 0.564 µM)

Tested on: Staphylococcus aureus
Test: Antibacterial activity against methicillin-susceptible Staphylococcus aureus ATCC 13709 after 16 to 18 hrs by broth microdilution method
Type: functional
Settings: time 16-18 hrs

Point of comparison: `CCCC[C@H](CN(O)C=O)C(=O)N1CCC[C@H]1c1nnc(-c2nccs2)s1`, MIC 0.5 µg/mL (≈ 1.22 µM). Against it:
- O=C(O)c1cn(C2CC2)c2cc(N3CCNCC3)c(F)cc2c1=O [CIPROFLOXACIN] — 16-fold higher, 8 µg/mL (≈ 24.1 µM)
- CCCC[C@H](CN(O)C=O)C(=O)N1CCC[C@H]1c1nnc(-c2ccc(C)s2)s1 — 4-fold higher, 2 µg/mL (≈ 4.73 µM)
- CCCC[C@H](CN(O)C=O)C(=O)N1CCC[C@H]1c1nnc(-c2ccc(Cl)s2)s1 — 2-fold higher, 1 µg/mL (≈ 2.26 µM)

Target: T1, Peptide deformylase (Staphylococcus aureus, UniProt P68826)
T1 sequence (P68826 whole entry): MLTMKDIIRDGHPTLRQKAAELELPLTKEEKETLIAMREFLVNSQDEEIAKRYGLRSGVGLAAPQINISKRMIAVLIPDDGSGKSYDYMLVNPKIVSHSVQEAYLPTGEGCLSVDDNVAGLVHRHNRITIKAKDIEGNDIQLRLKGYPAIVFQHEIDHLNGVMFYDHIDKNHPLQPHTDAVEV
Test: Inhibition of Staphylococcus aureus PDF-Ni assessed as enzyme activity incubated for 30 min by fluorescamine method
Settings: not given

For `CCCC[C@H](CN(O)C=O)C(=O)N1CCC[C@H]1c1nnc(-c2ccc(C)s2)s1`, the IC50 was 7.4 nM.

Tested on: not listed separately
Test: Acute toxicity in KM mouse infected with drug-resistant Acinetobacter baumannii assessed as pathological changes in liver at 40 mg/kg by HE staining based analysis
Type: organism-based
Settings: in vivo

In the case of `O=C(O)c1cn(C2CC2)c2cc(N3CCNCC3)c(F)cc2c1=O` [CIPROFLOXACIN], the Activity is reported as “Toxic”.

Tested on: not listed separately
Test: Methemoglobin toxicity in human blood at 500 uM incubated for 6 hrs by MetHb content assay
Type: tissue-based
Settings: not given

In the case of `CCCC[C@H](CN(O)C=O)C(=O)N1CCC[C@H]1c1nnc(-c2ccc(Cl)s2)s1`, the Activity is reported as “Toxic”.
With `CCCC[C@H](CN(O)C=O)C(=O)N1CCC[C@H]1c1nnc(-c2nccs2)s1` the Activity was “Toxic”.
In the case of `Nc1ccc(S(=O)(=O)c2ccc(N)cc2)cc1` [DAPSONE], the Activity is reported as “Toxic”.

Tested on: not listed separately
Test: Cytotoxicity against human HEK293T cells assessed as cell viability at 3.125 to 100 uM incubated for 24 hrs by MTT assay
Type: toxicity, cell-based, HEK-293T
Settings: not given

`CCCC[C@H](CN(O)C=O)C(=O)N1CCC[C@H]1c1nnc(-c2ccc(Cl)s2)s1` showed an IC50 at 24 h of over 100000 nM.

Tested on: Staphylococcus epidermidis
Test: Antibacterial activity against Staphylococcus epidermidis after 16 to 18 hrs by broth microdilution method
Type: functional
Settings: time 16-18 hrs

Point of comparison: `O=C(O)c1cn(C2CC2)c2cc(N3CCNCC3)c(F)cc2c1=O` [CIPROFLOXACIN], MIC 0.06 µg/mL (≈ 0.181 µM). Against it:
- CCCC[C@H](CN(O)C=O)C(=O)N1CCC[C@H]1c1nnc(-c2ccc(C)s2)s1 — 17-fold higher, 1 µg/mL (≈ 2.37 µM)
- CCCC[C@H](CN(O)C=O)C(=O)N1CCC[C@H]1c1nnc(-c2ccc(Cl)s2)s1 — 8.3-fold higher, 0.5 µg/mL (≈ 1.13 µM)
- CCCC[C@H](CN(O)C=O)C(=O)N1CCC[C@H]1c1nnc(-c2nccs2)s1 — 4.2-fold higher, 0.25 µg/mL (≈ 0.61 µM)

Tested on: Staphylococcus aureus
Test: Antibacterial activity against methicillin-susceptible Staphylococcus aureus ATCC 29213 after 16 to 18 hrs by broth microdilution method
Type: functional
Settings: time 16-18 hrs

Point of comparison: `O=C(O)c1cn(C2CC2)c2cc(N3CCNCC3)c(F)cc2c1=O` [CIPROFLOXACIN], MIC 8 µg/mL (≈ 24.1 µM). Against it:
- CCCC[C@H](CN(O)C=O)C(=O)N1CCC[C@H]1c1nnc(-c2ccc(C)s2)s1 — 4-fold lower, 2 µg/mL (≈ 4.73 µM)
- CCCC[C@H](CN(O)C=O)C(=O)N1CCC[C@H]1c1nnc(-c2ccc(Cl)s2)s1 — 8-fold lower, 1 µg/mL (≈ 2.26 µM)
- CCCC[C@H](CN(O)C=O)C(=O)N1CCC[C@H]1c1nnc(-c2nccs2)s1 — 4-fold lower, 2 µg/mL (≈ 4.88 µM)

Tested on: not listed separately
Test: Acute toxicity in KM mouse infected with drug-resistant Acinetobacter baumannii assessed as survival rate at 40 mg/kg
Type: organism-based
Settings: in vivo

For `O=C(O)c1cn(C2CC2)c2cc(N3CCNCC3)c(F)cc2c1=O` [CIPROFLOXACIN], the Activity was “Toxic”.

Tested on: Klebsiella pneumoniae
Test: Antibacterial activity against Klebsiella pneumoniae CICC 21611 after 16 to 18 hrs by broth microdilution method
Type: functional
Settings: time 16-18 hrs

Point of comparison: `O=C(O)c1cn(C2CC2)c2cc(N3CCNCC3)c(F)cc2c1=O` [CIPROFLOXACIN], MIC 0.03 µg/mL (≈ 0.0905 µM). Against it:
- CCCC[C@H](CN(O)C=O)C(=O)N1CCC[C@H]1c1nnc(-c2ccc(C)s2)s1 — 1100-fold higher, 32 µg/mL (≈ 75.7 µM)
- CCCC[C@H](CN(O)C=O)C(=O)N1CCC[C@H]1c1nnc(-c2ccc(Cl)s2)s1 — 1100-fold higher, 32 µg/mL (≈ 72.2 µM)
- CCCC[C@H](CN(O)C=O)C(=O)N1CCC[C@H]1c1nnc(-c2nccs2)s1 — higher, > 16 µg/mL

Target: T2, Peptide deformylase (Escherichia coli, UniProt Q9JN24)
T2 sequence (Q9JN24 whole entry): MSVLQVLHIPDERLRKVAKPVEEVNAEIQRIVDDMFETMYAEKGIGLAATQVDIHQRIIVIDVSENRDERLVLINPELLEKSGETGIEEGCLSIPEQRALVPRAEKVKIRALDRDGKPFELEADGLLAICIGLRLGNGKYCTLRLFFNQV
Test: Inhibition of Escherichia coli PDF-Ni assessed as enzyme activity incubated for 30 min by fluorescamine method
Settings: not given

With `CCCC[C@H](CN(O)C=O)C(=O)N1CCC[C@H]1c1nnc(-c2ccc(C)s2)s1` the IC50 was 98.5 nM.

Tested on: Staphylococcus aureus
Test: Antibacterial activity against methicillin-resistant Staphylococcus aureus Bio-090770 after 16 to 18 hrs by broth microdilution method
Type: functional
Settings: time 16-18 hrs

Point of comparison: `CCCC[C@H](CN(O)C=O)C(=O)N1CCC[C@H]1c1nnc(-c2nccs2)s1`, MIC 1 µg/mL (≈ 2.44 µM). Against it:
- O=C(O)c1cn(C2CC2)c2cc(N3CCNCC3)c(F)cc2c1=O [CIPROFLOXACIN] — 2-fold lower, 0.5 µg/mL (≈ 1.51 µM)
- CCCC[C@H](CN(O)C=O)C(=O)N1CCC[C@H]1c1nnc(-c2ccc(C)s2)s1 — 2-fold higher, 2 µg/mL (≈ 4.73 µM)
- CCCC[C@H](CN(O)C=O)C(=O)N1CCC[C@H]1c1nnc(-c2ccc(Cl)s2)s1 — the same, 1 µg/mL (≈ 2.26 µM)

Tested on: not listed separately
Test: Acute toxicity in KM mouse infected with drug-resistant Acinetobacter baumannii assessed as pathological changes in lungs at 40 mg/kg by HE staining based analysis
Type: organism-based
Settings: in vivo

For `O=C(O)c1cn(C2CC2)c2cc(N3CCNCC3)c(F)cc2c1=O` [CIPROFLOXACIN], the Activity was “Toxic”.

Tested on: Acinetobacter baumannii
Test: Antibacterial activity against Acinetobacter baumannii Bio 34235 after 16 to 18 hrs by broth microdilution method
Type: functional
Settings: time 16-18 hrs

Point of comparison: `CCCC[C@H](CN(O)C=O)C(=O)N1CCC[C@H]1c1nnc(-c2ccc(Cl)s2)s1`, MIC 32 µg/mL (≈ 72.2 µM). Against it:
- O=C(O)c1cn(C2CC2)c2cc(N3CCNCC3)c(F)cc2c1=O [CIPROFLOXACIN] — 64-fold lower, 0.5 µg/mL (≈ 1.51 µM)
- CCCC[C@H](CN(O)C=O)C(=O)N1CCC[C@H]1c1nnc(-c2ccc(C)s2)s1 — the same, 32 µg/mL (≈ 75.7 µM)
- CCCC[C@H](CN(O)C=O)C(=O)N1CCC[C@H]1c1nnc(-c2nccs2)s1 — 2-fold lower, 16 µg/mL (≈ 39.1 µM)

Tested on: Escherichia coli
Test: Antibacterial activity against Escherichia coli ATCC 25922 after 16 to 18 hrs by broth microdilution method
Type: functional
Settings: time 16-18 hrs

Point of comparison: `CCCC[C@H](CN(O)C=O)C(=O)N1CCC[C@H]1c1nnc(-c2ccc(C)s2)s1`, MIC 64 µg/mL (≈ 151 µM). Against it:
- CCCC[C@H](CN(O)C=O)C(=O)N1CCC[C@H]1c1nnc(-c2ccc(Cl)s2)s1 — 2-fold lower, 32 µg/mL (≈ 72.2 µM)
- CCCC[C@H](CN(O)C=O)C(=O)N1CCC[C@H]1c1nnc(-c2nccs2)s1 — not separable, > 16 µg/mL

Tested on: not listed separately
Test: Acute toxicity in KM mouse infected with drug-resistant Acinetobacter baumannii assessed as pathological changes in kidney at 40 mg/kg by HE staining based analysis
Type: organism-based
Settings: in vivo

For `O=C(O)c1cn(C2CC2)c2cc(N3CCNCC3)c(F)cc2c1=O` [CIPROFLOXACIN], the Activity was “Toxic”.

Tested on: not listed separately
Test: Cytotoxicity against human HeLa cells assessed as cell viability at 3.125 to 100 uM incubated for 24 hrs by MTT assay
Type: toxicity, cell-based
Settings: not given

`CCCC[C@H](CN(O)C=O)C(=O)N1CCC[C@H]1c1nnc(-c2ccc(Cl)s2)s1` showed an IC50 at 24 h of over 100000 nM.
